Measurements reported in US6028115A, “Method for preventing sexually transmitted diseases” (priority 1999, dated 2000).

Columns and labels:
[1] = tested on: sheep testicular hyaluronidase; test: hyaluronidase inhibition (hyaluronic acid hydrolysis); format: biochemical; conditions: pH 5.5, 10 minutes preincubation, 30 minutes at room temperature
Experimental: Hyaluronidase activity was quantitatively determined by measuring the extent of hyaluronic acid hydrolysis (i.e., the concentration of N-acetylglucosamine-reactive material formed from enzyme activity). Reaction mixtures (0.25 ml) containing the following were prepared: test compound (variable concentration); 0.1 M sodium acetate; 0.15 M sodium chloride; pH adjusted to 5.5; 7.2 units sheep testicular hyaluronidase (Sigma, Type III; H-2251) contained in an acetate buffer; 0.3 mg/ml hyaluronic acid (Sigma, from bovine vitreous humor; H-7630). The enzyme was preincubated with the test agent (1 mg/ml for screening purposes) for 10 minutes before starting the reaction by the addition of hyaluronic acid. The enzyme reaction was determined using the method of Aronson and Davidson (J. Biol. Chem. 241 437-440 (1967)). The reaction mixture was incubated for 30 minutes at room temperature. The reaction product was determined calorimetrically with p-dimethylaminobenzaldehyde (Reissig et al., J. Biol. Chem. 217 959-966 (1965)) by measuring the absorbance at 545 nm.
The reversibility of the hyaluronidase was determined by evaluating enzyme activity at different levels of enzyme (Ackermann and Potter, Proc. Soc. Exp. Biol. Med. 72 1-9 (1949)).

Lactobacillus gasseri = test: growth of normal vaginal flora bacterium in culture; format: cell-based; conditions: 0.5 mg/ml, anaerobic, 37° C.
Experimental: This example illustrates the effect of the inhibitory agents of this invention on the normal vaginal flora. Lactobacillus gasseri, which is found in normal vaginal flora, was obtained from the American Type Culture Collection (Rockville, Md.) and cultured under anaerobic conditions at 37° C. in the presence of the desired test agents. Control samples without added test agents were also run. Samples were collected at twenty minute intervals starting at 120 minutes after the start of incubation through 240 minutes. The absorbance at 550 nm was used to estimate the cell density and inhibitory effects. Nonoxynol-9 was also evaluated for comparison purposes.

MT2 cells = test: toxicity towards host cells of the virus assays; format: cell-based; conditions: concentration ranges used in the virus assays
Experimental: Serial dilutions of the test compounds (ranging from 0.1 μg/ml to 1.0 mg/ml) were added to HIV-1 virus such that 50 μl inoculum produced between 70 to 100 syncytia per well in untreated wells containing MT2 cells. The mHV-1 used was strain IIIs propagated in, and harvested from, a T4-lymphobastoid cell line. Each serial dilution of the test compound with virus was placed in each of three wells containing MT2 cells. The test compound alone was added to a fourth well containing MT2 cells to test for possible cytotoxicity. Triplicate virus control samples (no added test compounds but containing the equivalent amounts of the RPMI medium) were also included.

HIV-1 virus = conditions: general statement, no assay details; cited from earlier work
[2] = tested on: bovine papillomavirus type I; conditions: general statement; cited from earlier work

Question: Which results are given for Nonoxynol-9?
Answer: IC50 [1]: inactive; inhibition of growth of Lactobacillus gasseri (Lactobacillus gasseri): about 60%; toxicity towards the host cells (MT2 cells): did show cytotoxic effects; inhibition of the enveloped virus HIV (statement) (HIV-1 virus): inhibits; inhibition of the non-enveloped papillomavirus (statement) [2]: not
